Laboratory results published in US20090030024A1, “THIAZOLES AS FUNGICIDES” (priority 2005, published 2009).

Assay: logP determination by retention times (calibration with alkan-2-ones)
Details: * HPLC reversed-phase C18, 40° C., mobile phase 0.1% aqueous formic acid and acetonitrile, linear gradient 10% to 95% acetonitrile

With CC(=O)c1ccc(Nc2nccc(-c3sc(N(C)C)nc3C(F)(F)F)n2)cc1 [Example 769, 1-[4-({4-[2-(dimethylamine)-4-(trifluoromethyl)-1,3-thiazol-5-yl]pyrimidin-2-yl}amino)phenyl]ethanone] the logP was 3.44*.
With CN(C)c1nc(C(F)(F)F)c(-c2ccnc(Nc3ccc(N4CCCC4=O)cc3)n2)s1 [Example 770, 1-[4-({4-[2-(dimethylamine)-4-(trifluoromethyl)-1,3-thiazol-5-yl]pyrimidin-2-yl}amino)phenyl]pyrrolidin-2-one] the logP was 2.99*.
With Cc1nc(N(C)C)sc1-c1ccnc(Nc2ccc3c(c2)OC(F)(F)C(F)(F)O3)n1 [Example 774, 4-[2-(dimethylamine)-4-methyl-1,3-thiazol-5-yl]-N-(2,2,3,3-tetrafluoro-2,3-dihydro-1,4-benzodioxin-6-yl)pyrimidine-2-amine] the logP was 3.6*.
In the case of CN(C)c1nc(C(F)(F)F)c(-c2ccnc(Nc3cccc(N4CCCC4=O)c3)n2)s1 [Example 775, 1-[3-({4-[2-(dimethylamine)-4-(trifluoromethyl)-1,3-thiazol-5-yl]pyrimidin-2-yl}amino)phenyl]pyrrolidin-2-one], the logP is reported as 3.07*.
With CN(C)c1nc(C(F)(F)F)c(-c2ccnc(Nc3ccc(F)cc3)n2)s1 [Example 777, 4-[2-(dimethylamine)-4-(trifluoromethyl)-1,3-thiazol-5-yl]-N-(4-fluorophenyl)pyrimidine-2-amine] the logP was 3.96*.
In the case of CN(C)c1nc(C(F)(F)F)c(-c2ccnc(Nc3ccc(I)cc3)n2)s1 [Example 778, 4-[2-(dimethylamine)-4-(trifluoromethyl)-1,3-thiazol-5-yl]-N-(4-iodophenyl)pyrimidine-2-amine], the logP is reported as 4.88*.
In the case of CN(C)c1nc(C(F)(F)F)c(-c2ccnc(Nc3ccc4c(c3)OC(F)(F)O4)n2)s1 [Example 779, N-(2,2-difluoro-1,3-benzodioxol-5-yl)-4-[2-(dimethylamine)-4-(trifluoromethyl)-1,3-thiazol-5-yl]pyrimidine-2-amine], the logP is reported as 4.72*.
For CN(C)c1nc(C(F)(F)F)c(-c2ccnc(Nc3ccc4c(c3)OC(F)(F)C(F)(F)O4)n2)s1 [Example 780, 4-[2-(dimethylamine)-4-(trifluoromethyl)-1,3-thiazol-5-yl]-N-(2,2,3,3-tetrafluoro-2,3-dihydro-1,4-benzodioxin-6-yl)pyrimidine-2-amine], the logP was 5.28*.
In the case of Cc1nc(N(C)C)sc1-c1ccnc(Nc2cccc(N3CCCC3=O)c2)n1 [Example 782, 1-[3-({4-[2-(dimethylamine)-4-methyl-1,3-thiazol-5-yl]pyrimidin-2-yl}amino)phenyl]pyrrolidin-2-one], the logP is reported as 1.65*.
For COc1ccc(Nc2nccc(-c3sc(N(C)C)nc3C(F)(F)F)n2)cn1 [Example 783, 4-[2-(dimethylamine)-4-(trifluoromethyl)-1,3-thiazol-5-yl]-N-(6-methoxypyridin-3-yl)pyrimidine-2-amine], the logP was 3.17*.
With COc1ccc(Nc2nccc(-c3sc(N(C)C)nc3C)n2)cn1 [Example 785, 4-[2-(dimethylamine)-4-methyl-1,3-thiazol-5-yl]-N-(6-methoxypyridin-3-yl)pyrimidine-2-amine] the logP was 1.55*.

Same assay, conditions: logP, * HPLC reversed-phase C18, 40° C., mobile phase 0.1% aqueous formic acid and acetonitrile, linear gradient 10% to 95% acetonitrile

Going from CCCc1nc(C)c(-c2ccnc(Nc3cccc(C(C)=O)c3)n2)s1 [Example 767, 1-(3-{[4-(4-methyl-2-propyl-1,3-thiazol-5-yl)pyrimidin-2-yl]amino}phenyl)ethanone] to CCc1nc(C)c(-c2ccnc(Nc3ccc(OC)c(O)c3)n2)s1 [Example 791, 5-{[4-(2-ethyl-4-methyl-1,3-thiazol-5-yl)pyrimidin-2-yl]amino}-2-methoxyphenol], the chromatographic logP falls from 3.04 to 2.09.

Going from CCCc1nc(C)c(-c2ccnc(Nc3cc(OC)c(OC)c(OC)c3)n2)s1 [Example 768, 4-(4-methyl-2-propyl-1,3-thiazol-5-yl)-N-(3,4,5-trimethoxyphenyl)pyrimidine-2-amine] to COCCNc1nc(C)c(-c2ccnc(Nc3ccc(OC)c(OC)c3)n2)s1 [Example 800, N-(3,4-dimethoxyphenyl)-4-{2-[(2-methoxyethyl)amino]-4-methyl-1,3-thiazol-5-yl}pyrimidine-2-amine], the chromatographic logP falls from 2.93 to 1.55.

Compared with COCC(C)Nc1nc(C)c(-c2ccnc(Nc3cccc(N4CCCC4=O)c3)n2)s1 (stereo not shown) [Example 772, 1-{3-[(4-{2-[(2-methoxy-1-methylethyl)amino]-4-methyl-1,3-thiazol-5-yl}pyrimidin-2-yl)amino]phenyl}pyrrolidin-2-one], COCCNc1nc(C)c(-c2ccnc(Nc3cccc([N+](=O)[O-])c3)n2)s1 [Example 781, 4-{2-[(2-methoxyethyl)amino]-4-methyl-1,3-thiazol-5-yl}-N-(3-nitrophenyl)pyrimidine-2-amine] is higher in chromatographic logP: 1.68 for the first, 1.97 for the second.

Going from COCCNc1nc(C)c(-c2ccnc(Nc3ccc(OC)nc3)n2)s1 [Example 784, 4-{2-[(2-methoxyethyl)amino]-4-methyl-1,3-thiazol-5-yl}-N-(6-methoxypyridin-3-yl)pyrimidine-2-amine] to COCCNc1nc(C)c(-c2ccnc(Nc3ccc(OC)c(Cl)c3)n2)s1 [Example 804, N-(3-chloro-4-methoxyphenyl)-4-{2-[(2-methoxyethyl)amino]-4-methyl-1,3-thiazol-5-yl}pyrimidine-2-amine], the chromatographic logP rises from 1.45 to 1.96.

Compared with COc1cc(Nc2nccc(-c3cnc(-c4ccccc4)s3)n2)cc(OC)c1OC [Example 786, 4-(2-phenyl-1,3-thiazol-5-yl)-N-(3,4,5-trimethoxyphenyl)pyrimidine-2-amine], COc1cc(Nc2nccc(-c3cnc(-c4ccc(Cl)cc4)s3)n2)cc(OC)c1OC [Example 792, 4-[2-(4-chlorophenyl)-1,3-thiazol-5-yl]-N-(3,4,5-trimethoxyphenyl)pyrimidine-2-amine] is higher in chromatographic logP: 3.37 for the first, 4.12 for the second.

First: c1ccc(Nc2nccc(-c3cnc(-c4ccccc4)s3)n2)cc1 [Example 787, N-phenyl-4-(2-phenyl-1,3-thiazol-5-yl)pyrimidine-2-amine]
Second: Clc1ccc(-c2ncc(-c3ccnc(Nc4ccccc4)n3)s2)cc1 [Example 793, 4-[2-(4-chlorophenyl)-1,3-thiazol-5-yl]-N-phenylpyrimidine-2-amine]
The chromatographic logP of the first is lower: 3.97 for the first, 4.85 for the second.

Going from COc1ccc(Nc2nccc(-c3sc(C)nc3C)n2)cc1 [Example 788, 4-(2,4-dimethyl-1,3-thiazol-5-yl)-N-(4-methoxyphenyl)pyrimidine-2-amine] to CCc1nc(C)c(-c2ccnc(Nc3ccc(OC)cc3)n2)s1 [Example 789, 4-(2-ethyl-4-methyl-1,3-thiazol-5-yl)-N-(4-methoxyphenyl)pyrimidine-2-amine], the chromatographic logP rises from 2.34 to 2.78.

First: COc1ccc(Nc2nccc(-c3sc(C)nc3C)n2)cc1O [Example 790, 5-{[4-(2,4-dimethyl-1,3-thiazol-5-yl)pyrimidin-2-yl]amino}-2-methoxyphenol]
Second: COCCNc1nc(C)c(-c2ccnc(Nc3ccc(C)c([N+](=O)[O-])c3)n2)s1 [Example 806, 4-{2-[(2-methoxyethyl)amino]-4-methyl-1,3-thiazol-5-yl}-N-(4-methyl-3-nitrophenyl)pyrimidine-2-amine]
The chromatographic logP of the first is lower: 1.79 for the first, 2.17 for the second.

First: CCc1nc(C)c(-c2ccnc(Nc3ccc(Cl)cc3Cl)n2)s1 [Example 794, N-(2,4-dichlorophenyl)-4-(2-ethyl-4-methyl-1,3-thiazol-5-yl)pyrimidine-2-amine]
Second: COCCNc1nc(C)c(-c2ccnc(Nc3ccc(N(C)C)c(Cl)c3)n2)s1 [Example 805, 2-chloro-N4-(4-{2-[(2-methoxyethyl)amino]-4-methyl-1,3-thiazol-5-yl}pyrimidin-2-yl)-N1,N1-dimethylbenzene-1,4-diamine]
The chromatographic logP of the first is higher: 4.9 for the first, 1.57 for the second.

Compared with Clc1ccc(-c2ncc(-c3ccnc(Nc4cccc(Cl)c4)n3)s2)cc1 [Example 795, N-(3-chlorophenyl)-4-[2-(4-chlorophenyl)-1,3-thiazol-5-yl]pyrimidine-2-amine], CCOC(=O)Nc1ccc(Nc2nccc(-c3sc(C(C)C)nc3C)n2)cc1 [Example 796, ethyl-(4-{[4-(2-isopropyl-4-methyl-1,3-thiazol-5-yl)pyrimidin-2-yl]amino}phenyl)carbamate] is lower in chromatographic logP: 5.57 for the first, 2.18 for the second.

Going from COCCNc1nc(C)c(-c2ccnc(Nc3cc(OC)cc(OC)c3)n2)s1 [Example 801, N-(3,5-dimethoxyphenyl)-4-{2-[(2-methoxyethyl)amino]-4-methyl-1,3-thiazol-5-yl}pyrimidine-2-amine] to COCCNc1nc(C)c(-c2ccnc(Nc3ccc4c(c3)OCO4)n2)s1 [Example 802, N-1,3-benzodioxol-5-yl-4-{2-[(2-methoxyethyl)amino]-4-methyl-1,3-thiazol-5-yl}pyrimidine-2-amine], the chromatographic logP falls from 1.96 to 1.65.

Going from COCCNc1nc(C)c(-c2ccnc(Nc3ccc4c(c3)OCCO4)n2)s1 [Example 803, N-(2,3-dihydro-1,4-benzodioxin-6-yl)-4-{2-[(2-methoxyethyl)amino]-4-methyl-1,3-thiazol-5-yl}pyrimidine-2-amine] to COCCNc1nc(C)c(-c2ccnc(Nc3ccc(C#N)cc3)n2)s1 [Example 807, 4-[(4-{2-[(2-methoxyethyl)amino]-4-methyl-1,3-thiazol-5-yl}pyrimidin-2-yl)amino]benzonitrile], the chromatographic logP rises from 1.63 to 1.9.

Same assay, conditions: logP, values marked *: HPLC on reversed-phase C 18, 40° C., mobile phase 0.1% aqueous formic acid and acetonitrile, linear gradient 10% to 95% acetonitrile

First: COCCNc1nc(C)c(-c2ccnc(Nc3ccc(O)cc3)n2)s1 [Example 808, 4-[(4-{2-[(2-methoxyethyl)amino]-4-methyl-1,3-thiazol-5-yl}pyrimidin-2-yl)amino]phenol]
Second: Cc1nc(NCC2CCCO2)sc1-c1ccnc(Nc2ccc(F)cc2F)n1 (stereo not shown) [Example 809, N-(2,4-difluorophenyl)-4-{4-methyl-2-[(tetrahydrofuran-2-ylmethyl)amino]-1,3-thiazol-5-yl}pyrimidine-2-amine]
The chromatographic logP of the first is lower: 1.22 for the first, 2.09 for the second.
